Test results as given in the METLIN SMRT retention time set (Domingo-Almenara et al. 2019).

Assay: gradient 5% acetonitrile 3 min, to 50% in 2 min, to 85% in 15 min, held 3 min, 100 µL/min
Details: column: Zorbax Extend-C18 2.1 x 50 mm; eluents: water / acetonitrile, 0.1% formic acid
How it was run: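 Retention time was recorded from adduct peaks, which were picked computationally and each inspected manually. Pure standards ran in mixtures of ~100 molecules on HPLC coupled to a quadrupole time-of-flight mass spectrometer, in positive and negative ionization mode, through a Zorbax Extend-C18 column (2.1 × 50 mm, 1.8 μm) at 100 μL/min. Eluents were water and acetonitrile, each with 0.1% formic acid.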

SMILES	RP-LC retention time [s]
O=S(=O)(c1cccn2c(SCc3ccc(F)cc3)nnc12)N1CCc2ccccc2C1	944
O=C(NCc1cccs1)C(=O)c1cccn1Cc1ccc(F)cc1	1010
CCOc1ccc(-c2csc(Cc3nc(-c4ccc5c(c4)OCO5)no3)n2)cc1	1200
CS(=O)(=O)N1CCCC(C(=O)NC2CCCCC2)CCNC(=O)CC1 (stereo not given)	633
Cc1noc(CNC(=O)Cn2cnc3ccccc3c2=O)n1	576
CC(C)C(=O)NCc1cnn(-c2ccc(C(=O)Nc3ccc4c(c3)OCCO4)cc2)c1	733
O=C(NCC1CCCO1)C1CCCN(c2ccnc(-c3ccccc3)n2)C1 (stereo not given)	571
COc1ccc(Cl)cc1NC(=O)N1CCc2c(c(COc3ccccc3)nn2C)C1	988
O=C(C1CCC1)N1CCc2sc(S(=O)(=O)Nc3ccc(F)c(Cl)c3)cc2C1	948
Cc1nc(-c2ccnc(N3CCCC3)c2)no1	572
CCCCN(C)C(=O)c1cc2sc(C)c(CN3CCCC3)c2[nH]1	671
CC(=O)Nc1cccc(N2CC(C(=O)NC3CCCCCCC3)CC2=O)c1 (stereo not given)	731
O=C(Nc1ccc2c(c1)OCCO2)c1cn(-c2cc(N3CCCC3)ncn2)cn1	795
Cc1nc(C2CCOCC2)n(C2CCN(S(=O)(=O)c3cc(F)cc(F)c3)C2)n1 (stereo not given)	740
Cc1nc2cc(-c3noc(C4(c5ccccc5)CC4)n3)ccc2o1	1110
COc1ccc(NS(=O)(=O)c2cc3n(c2)CCCNC3=O)cc1Cl	677
CCOC(=O)c1sc(NC(=O)CN2CCN(c3ccccn3)CC2)nc1C	605
CCCn1c(=O)sc2cc(S(=O)(=O)N3CCC(C(=O)N4CCN(C)CC4)CC3)ccc21	628
COc1ccc(C(=O)N2CCC(Oc3cc(N(C)C)ncn3)C2)cc1 (stereo not given)	650
CCCc1cc(C2CCCN2C(=O)Nc2ccc(OC)c(OC)c2)no1 (stereo not given)	778
Oc1ccccc1-c1nc2ccc(Cl)cn2c1Nc1ccc(Cl)cc1	1090
O=C(Cc1cc(-c2ccc(Cl)cc2)on1)NCCC1=CCCCC1	584
CCOc1ccc2nc(C(=O)NC3CC3)cn2n1	697

SMILES	RP-LC retention time [s]
Cc1cc(C)c(NC(=O)Cn2nc3c(N(C)C4CCCCC4)nccn3c2=O)c(C)c1	797
Clc1ccc(Nc2c(-c3ccc(Cl)cc3)nc3ccc(Cl)cn23)cc1	1090
COc1ccc(OC)c(COCC(O)CN2CCc3cc(OC)c(OC)cc3C2)c1 (stereo not given)	575
CCCN(CCC)S(=O)(=O)c1cccc(-c2cn3ccc(C)cc3n2)c1	744
O=C(Cc1noc2ccccc12)Nc1cccc2nsnc12	814
Cc1ccc(-n2c(=O)c3c(cc(C)n3C)n(CC(=O)Nc3cc(C)ccc3C)c2=O)cc1	906
Cc1ccc(F)c(NC(=O)c2nc(C)oc2C)c1	1010
O=C(Nc1nc2c(s1)COc1ccccc1-2)c1cc(Cl)ccc1Cl	1030
O=C(Nc1ccc(N2CCN(c3ccccc3)C2=O)nc1)c1cccc(Cl)c1	959
CCSc1nc(NCC(C)C)c2cnn(CCNC(=O)c3cn(C)nc3OC)c2n1	749
COc1ccc2[nH]cc(CCNC(=O)c3ccc(SC)cc3OC)c2c1	865
O=C(NCCc1ccccc1)c1nnc(-c2ccc(S(=O)(=O)N3CCOCC3)cc2)o1	845
CCc1cc(=O)n(CC(=O)NC(C)CCc2ccccc2)c(-c2ccccc2)n1 (stereo not given)	1190
CC(NC(=O)Cc1ccccc1F)C(=O)Nc1nc2ccccc2[nH]1 (stereo not given)	638
Cc1cc2c(=O)n(CC(=O)Nc3ccc(C)c(Cl)c3)ccc2s1	896
CCCNC(=O)C1CCCN(c2nc3ncn(CC(=O)Nc4cccc(C(C)C)c4)c(=O)c3s2)C1 (stereo not given)	802
CCOc1ccc(C2Cn3nnc(-c4nc(-c5cccnc5)no4)c3CO2)cc1 (stereo not given)	982
NC(=O)c1cnn2c3c(cnc12)CCCCCC3	801
O=C1[C@H]2CN(Cc3ccccc3Cl)C[C@H]2C(=O)N1CCN1CCc2ccccc2C1	661
O=c1c2cc(-c3cccs3)nn2cnn1Cc1nc(-c2ccc(Cl)cc2)no1	1150
O=C(c1ccccn1)N1CC(c2nc(-c3ccccc3)no2)C2(CCOCC2)C1 (stereo not given)	743
CCOc1ccc(N2C(=O)CC(c3ccc(OC)c(OC)c3)CC2=O)cc1	841
O=C(Nc1sc2c(c1C(c1cccnc1)N1CCN(c3ccccn3)CC1)CCCC2)c1ccco1 (stereo not given)	676

SMILES	RP-LC retention time [s]
COc1ccc(NC(=O)C2CCc3sc(C(=O)N4CCCC4)cc3C2)cc1F (stereo not given)	779
COc1cc(OC)c(NC(=O)C2CCCN(C(=O)c3cc(-c4ccncc4)n[nH]3)C2)cc1Cl (stereo not given)	633
Cc1ccc(S(=O)(=O)N2CCC(c3nc(C(=O)N4CCCC4)c(C)o3)CC2)cc1C	747
COc1ccc2[nH]c3c(c2c1)CCNC3	365
Cc1cc(C)c(S(=O)(=O)N2CCc3nc(-c4ccccc4)ncc3C2)cc1C	1230
Cc1ccccc1NS(=O)(=O)c1cc2c(s1)CCN(C(=O)C1CC1)C2	822
Cc1cccc(C)c1OCC(O)Cn1c(C2CC2)nc2ccccc21 (stereo not given)	710
Cc1nnc(NC(=O)CSc2nnc(-c3cccs3)o2)s1	654
Cc1cccc(NC(=O)Cn2nc(C(=O)N3CCOCC3)c3ccccc32)c1C	819
COc1ccc(C2Cn3nnc(-c4nc(C(C)C)no4)c3CO2)cc1 (stereo not given)	936
CCNc1cc(N2CCC(CCC(=O)NC(CC)CC)CC2)ncn1	639
COc1cccc(/C=C/c2nc(C#N)c(NCCCN(C)C)o2)c1	651
O=C(CCc1c(-c2ccc(F)cc2)nc2ccccn12)N1CCN(c2ccccc2F)CC1	694
O=C(NCCC1CCN(C(=O)Nc2ccccc2)CC1)c1ccoc1	704
CC(=O)Oc1cc(-c2cccc(C(F)(F)F)c2)c2oc(=O)sc2c1	1030
COC(=O)Cc1c(C(=O)OC)nnn1-c1ccc(OC)cc1	862
Cn1c(=O)c2cc(C(=O)Nc3ccccc3)cnc2n(-c2ccc(F)cc2)c1=O	885
CC(C)Sc1cc(NCCCO)c([N+](=O)[O-])c2nonc12	723
CN(C(=O)c1ccc(F)cc1C(F)(F)F)C1CCN(c2nnc(-c3ccnn3C)c3ccccc23)CC1	850
O=C(NCCCN1CCCCC1)c1cc2n(n1)CCCN(Cc1ccccc1)C2=O	569
Cc1cccc(N2C(=O)C(O)=C(C(=O)c3cccs3)C2c2ccc(Cl)cc2)n1 (stereo not given)	1040
O=C(COc1cccc(Br)c1)Nc1nc(-c2ccccc2)cs1	1130
Cc1nn(C)c(C)c1CCN(C)c1nc(C2CC2)nc2c1CCC2	604

SMILES	RP-LC retention time [s]
CN(CCc1noc(COc2ccc(F)cc2)n1)C(=O)Nc1ccccc1	856
Cc1ccc(CNC(=O)C2CCCN(C(=O)Cc3cccc4ccccc34)C2)o1 (stereo not given)	806
CC(C)c1ccc(OCC(=O)Nc2nnc(C3CC(=O)N(c4ccccc4)C3)o2)cc1 (stereo not given)	728
CCOc1ccc(NC(=O)C2CCN(S(C)(=O)=O)c3ccccc3O2)cc1 (stereo not given)	877
COc1ccc(N2CCN(c3cc(SCC(=O)Nc4ccc(C(C)C)cc4)ncn3)CC2)cc1	1110
CCC(C(=O)N1CCN(CC)CC1)n1c2ccccc2c2cnn(C)c(=O)c21 (stereo not given)	619
CN1C(=O)[C@H]2CN(Cc3ccc(Cl)cc3)C[C@H]2C1=O	598
CCCNC(=O)C1CCCN(c2cc(=O)n(C)c(=O)n2C)C1 (stereo not given)	597
CC12CC(c3ccccc3O1)C(C(=O)Nc1nc(-c3ccccc3)cs1)C(=O)N2 (stereo not given)	996
COc1ccc2c(c1)C1(CCN(S(=O)(=O)c3ccc(F)c(F)c3)C1)C(=O)N2 (stereo not given)	837
COc1ccc(C2=Nc3ccccc3N(CC(=O)Nc3ccc4c(c3)OCO4)C(=O)C2)cc1	895
CN(C)[C@@H]1CN(C(=O)c2cc(Cl)ccc2F)C[C@H]1CO	571
CCCOc1nccnc1NC1CCN(C(=O)c2cccs2)CC1	814
CCc1ccc(Nc2c(C(=O)N3CCOCC3)cnc3nc(C)ccc23)cc1	601
O=C(CN1CCC(c2nc(-c3cccc(F)c3)no2)CC1)NC1CCCCC1	705
COc1ccc(-c2nc3ccccn3c2Nc2ccc3c(c2)OCCO3)cc1	719
Cc1ccc(CNC(=O)Cn2cnc3c(c(C)c(C)n3-c3ccc(Cl)cc3)c2=O)o1	930
COc1ccc(-c2cc(N3CCC(NC(=O)c4ccc(N(C)C)cc4)C3)n[nH]2)cc1 (stereo not given)	702
CC(C)n1cc(C(=O)O)c(S(=O)(=O)N2CCCC2)n1	712
COc1ccc(C(O)Cn2ccn3nc(-c4ccc(C)c(C)c4)cc3c2=O)cc1OC (stereo not given)	881
Cc1cc(C)c(CNC(=O)C2CCN(c3cncnc3N3CCOCC3)CC2)c(C)c1	681
